Results on one compound are retold here after patent US7910621B2, “Small molecule antagonists of XIAP family proteins” (The Regents of the University of Michigan, priority 2004, dated 2011).

The test has as its system Jurkat-XIAP cells. Kind of test: Cell growth assay, Jurkat-XIAP. The class given is cell-based. Conditions: essentially identical to that in Jurkat-Vec cells. The method, then: FIG. 9 presents inhibition of cell growth by embelin in Jurkat-Vec and Jurkat-XIAP cells. The cell growth results are expressed as the percent of control and calculated from the percent of absorbance of treated wells versus that of vehicle control.
Human prostate cancer cell lines (PC-3, LNCap, CL-1, DU-145), and normal human fibroblast cell line WI-38 were obtained from the American Type Culture Collection (ATCC), were grown and maintained in Dulbecco's modified Eagle's medium (DMEM) containing 10% FBS (Invitrogen Corporation). Normal human prostate epithelial cells (PrEC) were obtained from Clonetics (Cambrex Inc., MD) and maintained in the special medium provided by the company. Jurkat T-cells stably transfected with either empty vector (Jurkat-Vec), or XIAP (Jurkat-XIAP) and were cultured in RPMI 1640 containing 10% fetal calf serum and 1 ug/ml puromycin. Cell cultures were maintained in a humidified incubator at 37° C. and 5% CO2.
Cell growth was determined by the MTT-based assay using Cell Proliferation Reagent WST-1 (Roche) according to the manufacturer's instruction. The WST-1 assay is a colorimetric assay that measures the reduction of WST-1 by mitochondrial succinate dehydrogenase, which belongs to the respiratory chain of the mitochondria and is active only in viable cells. The WST-1 enters the cells and passes into the mitochondria, where it is reduced to a soluble, colored formazan product. The amount of formazan dye formed directly correlates to the number of metabolically active cells in the culture. Cells (5000 cells/well) were grown in medium with 10% FBS, and various concentrations of drugs were added to the cells in triplicate. […] Absorbance was measured with a plate reader at […] with correction at […]. The results are expressed as the percent of absorbance of treated wells versus that of vehicle control.

In the case of `CCCCCCCCCCCC1=C(O)C(=O)C=C(O)C1=O` [embelin], the “activity in cell growth assay” value is recorded as “weak activity”.
